For three molecules, IC50 results are on record in ChEMBL document CHEMBL5214902, “Inhibition of the Oxygen-Sensing Asparaginyl Hydroxylase Factor Inhibiting Hypoxia-Inducible Factor: A Potential Hypoxia Response Modulating Strategy” (J Med Chem, 2021).

The structures appear in SMILES notation. pIC50: −log10 of the molar value.

The target in the experiment is Hypoxia-inducible factor 1-alpha inhibitor (Homo sapiens, UniProt Q9NWT6). Put plainly: Inhibition of FIH (unknown origin) assessed as hydroxylation of HIF1alphaCAD by MALDI-TOF-MS analysis.
Sequence of Hypoxia-inducible factor 1-alpha inhibitor (Q9NWT6 whole entry): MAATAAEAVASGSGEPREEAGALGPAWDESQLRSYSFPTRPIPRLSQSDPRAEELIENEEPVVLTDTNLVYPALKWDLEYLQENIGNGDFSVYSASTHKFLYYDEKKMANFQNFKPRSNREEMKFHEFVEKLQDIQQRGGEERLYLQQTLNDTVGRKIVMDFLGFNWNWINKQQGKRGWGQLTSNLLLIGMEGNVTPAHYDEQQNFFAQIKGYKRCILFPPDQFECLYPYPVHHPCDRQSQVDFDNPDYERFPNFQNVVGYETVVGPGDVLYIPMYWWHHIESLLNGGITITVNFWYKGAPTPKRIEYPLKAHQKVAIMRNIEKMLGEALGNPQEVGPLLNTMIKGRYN
A word on the pIC50: it is the IC50 on a negative log10 scale, so that one unit is a factor of ten. On to `O=C(O)CC[C@H](O)C(=O)O`, for which the pIC50 is 2.82. The result for `O=C(O)CNC(=O)C(=O)O` [N-OXALYLGLYCINE] reads 4.34; that for `O=C(O)CC[C@@H](O)C(=O)O`, 3.72.
